Data on 4 molecules can be found in article PMC4724521 (Phytochemistry, 2015).

The subject of data set [1] is EH activity of K. brevis CFE.
Data set [2] concerns the target Rhodococcus erythropolis LEH. The conditions noted are these: ref Arand et al., 2003; cited from earlier work.
Data set [3] concerns K. brevis EH. Nature of the data set: Inhibition assay of purified EH with fluorescent substrate 5b. The class given is biochemical, Karenia brevis. The conditions noted are these: substrate 5b 100 μM, EH 0.1 mg/ml, 2 min preincubation, pH 7.0, 30 °C.

With `CCCC(CCC)C(N)=O` [valpromide 8, valpromide], the “inhibition of total EH activity (in words)” value in data set [1] is recorded as “only adamantly urea 7 inhibited the total activity”. Moreover, in data set [2], the Ki (usually a measure of affinity in units of concentration, obtained from inhibition or displacement) is 0.1 mM.
On to `CC1(C)OC1c1ccccc1` (stereo not drawn) [β-dimethylstyrene oxide], for which the IC50 (usually the midpoint of a concentration-inhibition curve) in data set [3] is 6.99 mM.
Same read-out and setting: the same measure for `CC1OC1c1ccccc1` (stereo not drawn) [cis-β-methylstyrene oxide]: 3.05 mM.
Still for that read-out and setting: the same measure for `C[C@H]1O[C@@H]1c1ccccc1` (relative stereo) [trans-β-methylstyrene oxide-, trans-β-methylstyrene oxide]: 14.3 mM.
